Several values for one entry are separate records, joined by “and”; a condition that tells them apart may be missing. Identical values can stand only once.
Tests used:
[1] = biological target: T1, hCB2R (Homo sapiens, UniProt P34972); assay: [3H]RO6957022 competition association assay; type: binding
T1 construct: host or cells: CHO-K1 (CHOK1_hCB2bgal, PathHunter), membranes

[2] = biological target: CB2R WT (Homo sapiens, UniProt P34972); assay: [35S]GTPγS G protein activation assay, CB2R WT; type: biochemical; conditions: for Emax: CB2R WT
CB2R WT, sequence (P34972 whole entry): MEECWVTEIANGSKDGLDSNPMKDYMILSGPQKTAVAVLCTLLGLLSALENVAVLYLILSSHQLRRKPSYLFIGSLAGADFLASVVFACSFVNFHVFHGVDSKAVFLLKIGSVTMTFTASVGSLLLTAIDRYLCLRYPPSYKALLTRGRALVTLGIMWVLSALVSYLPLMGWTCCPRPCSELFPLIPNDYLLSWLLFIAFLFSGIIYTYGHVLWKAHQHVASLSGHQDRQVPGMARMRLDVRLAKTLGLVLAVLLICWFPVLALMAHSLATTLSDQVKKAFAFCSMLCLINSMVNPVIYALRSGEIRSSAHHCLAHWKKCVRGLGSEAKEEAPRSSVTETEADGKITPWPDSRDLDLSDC

[3] = biological target: CB2R-I110^3.29L (Homo sapiens, UniProt P34972, I110L); assay: [35S]GTPγS assay, CB2R I110L mutant; type: biochemical; conditions: for [35S]GTPγS binding: I1103.29L, individual replicates
CB2R-I110^3.29L, sequence (P34972 whole entry I110L): as the sequence (P34972 whole entry) above, with I110L counted along it

[4] = biological target: CB2R-I110^3.29A (Homo sapiens, UniProt P34972, I110A); assay: [35S]GTPγS assay, CB2R I110A mutant; type: biochemical; conditions: for [35S]GTPγS binding: I1103.29A, individual replicates
CB2R-I110^3.29A, sequence (P34972 whole entry I110A): as the sequence (P34972 whole entry) above, with I110A counted along it

[5] = biological target: CB2R-S285^7.39A (Homo sapiens, UniProt P34972, S285A); assay: [35S]GTPγS assay, CB2R S285A mutant; type: biochemical
CB2R-S285^7.39A, sequence (P34972 whole entry S285A): as the sequence (P34972 whole entry) above, with S285A counted along it

[6] = biological target: CB2R-F117^3.36A (Homo sapiens, UniProt P34972, F117A); assay: [35S]GTPγS assay, CB2R F117A mutant; type: biochemical
CB2R-F117^3.36A, sequence (P34972 whole entry F117A): as the sequence (P34972 whole entry) above, with F117A counted along it

[7] = biological target: CB2R-H95^2.65A (Homo sapiens, UniProt P34972, H95A); assay: [35S]GTPγS assay, CB2R H95A mutant; type: biochemical
CB2R-H95^2.65A, sequence (P34972 whole entry H95A): as the sequence (P34972 whole entry) above, with H95A counted along it

[8] = biological target: CB2R-V261^6.51L (Homo sapiens, UniProt P34972, V261L); assay: [35S]GTPγS assay, CB2R V261L mutant; type: biochemical; conditions: for [35S]GTPγS binding: V2616.51L, individual replicates
CB2R-V261^6.51L, sequence (P34972 whole entry V261L): as the sequence (P34972 whole entry) above, with V261L counted along it

[9] = biological target: CB2R-L185^ECL2H (Homo sapiens, UniProt P34972, L185H); assay: [35S]GTPγS assay, CB2R L185H mutant; type: biochemical
CB2R-L185^ECL2H, sequence (P34972 whole entry L185H): as the sequence (P34972 whole entry) above, with L185H counted along it

[10] = biological target: CB2R-L182^ECL2I (Homo sapiens, UniProt P34972, L182I); assay: [35S]GTPγS assay, CB2R L182I mutant; type: biochemical
CB2R-L182^ECL2I, sequence (P34972 whole entry L182I): as the sequence (P34972 whole entry) above, with L182I counted along it

[11] = biological target: CB2R-E181^ECL2D (Homo sapiens, UniProt P34972, E181D); assay: [35S]GTPγS assay, CB2R E181D mutant; type: biochemical
CB2R-E181^ECL2D, sequence (P34972 whole entry E181D): as the sequence (P34972 whole entry) above, with E181D counted along it

[12] = biological target: CB2R-Quadruple^TM1,7 (Homo sapiens, UniProt P34972, C40S/K279T/K33Q/V36I); assay: [35S]GTPγS assay, CB2R quadruple mutant; type: biochemical
CB2R-Quadruple^TM1,7, sequence (P34972 whole entry K33Q/V36I/C40S/K279T): as the sequence (P34972 whole entry) above, with K33Q, V36I, C40S, K279T counted along it

[13] = biological target: T2, hCB1R WT (Homo sapiens, UniProt P21554); assay: [3H]CP55,940 displacement assay, CB1R WT; type: binding
T2 sequence (P21554 whole entry): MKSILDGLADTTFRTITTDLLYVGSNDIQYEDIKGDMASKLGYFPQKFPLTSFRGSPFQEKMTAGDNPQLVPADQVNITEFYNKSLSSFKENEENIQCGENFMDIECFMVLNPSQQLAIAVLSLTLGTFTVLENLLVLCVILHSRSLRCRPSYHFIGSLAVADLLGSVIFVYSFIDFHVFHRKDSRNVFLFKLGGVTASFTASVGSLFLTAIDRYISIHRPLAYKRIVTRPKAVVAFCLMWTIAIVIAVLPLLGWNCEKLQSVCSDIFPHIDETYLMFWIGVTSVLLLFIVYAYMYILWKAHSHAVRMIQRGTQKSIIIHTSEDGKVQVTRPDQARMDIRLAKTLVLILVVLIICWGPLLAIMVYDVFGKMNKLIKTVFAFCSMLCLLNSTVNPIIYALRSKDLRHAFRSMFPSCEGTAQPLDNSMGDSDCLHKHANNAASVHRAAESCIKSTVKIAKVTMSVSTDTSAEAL

[14] = biological target: CB1R-L359^6.51V (Homo sapiens, UniProt P21554, L359V); assay: [3H]CP55,940 displacement assay, CB1R L359V mutant; type: binding
CB1R-L359^6.51V, sequence (P21554 whole entry L359V): as the sequence (P21554 whole entry) above, with L359V counted along it

[15] = biological target: T3, CB1R-H270^ECL2L (Homo sapiens, UniProt P21554, H270L); assay: [3H]CP55,940 displacement assay, CB1R H270L mutant; type: binding
T3 sequence (P21554 whole entry H270L): as the sequence (P21554 whole entry) above, with H270L counted along it

[16] = biological target: T4, CB1R I267ECL2L (Homo sapiens, UniProt P21554, I267L); assay: [3H]CP55,940 displacement assay, CB1R I267L mutant; type: binding
T4 sequence (P21554 whole entry I267L): as the sequence (P21554 whole entry) above, with I267L counted along it

[17] = biological target: T5, CB1R D266ECL2E (Homo sapiens, UniProt P21554, D266E); assay: [3H]CP55,940 displacement assay, CB1R D266E mutant; type: binding
T5 construct: The WT CB1R and CB2R genes were subcloned into vector pcDNA3.1; HA signal peptide (N); expressed in transfected cells; host or cells: HEK293T (transient, membrane homogenates)
T5 sequence (P21554 whole entry D266E): as the sequence (P21554 whole entry) above, with D266E counted along it

[18] = biological target: T6, CB1R QuadrupleTM1,7 (Homo sapiens, UniProt P21554, I119V/Q116K/S123C/T377K); assay: [3H]CP55,940 displacement assay, CB1R quadruple mutant; type: binding
T6 construct: The WT CB1R and CB2R genes were subcloned into vector pcDNA3.1; HA signal peptide (N); expressed in transfected cells; host or cells: HEK293T (transient, membrane homogenates)
T6 sequence (P21554 whole entry Q116K/I119V/S123C/T377K): as the sequence (P21554 whole entry) above, with Q116K, I119V, S123C, T377K counted along it

[19] = biological target: T2, hCB1R WT; assay: [35S]GTPγS G protein activation assay, CB1R WT; type: biochemical; conditions: CB1R WT; 10 µM agonist
[20] = biological target: T3, CB1R-H270^ECL2L; assay: [35S]GTPγS assay, CB1R H270L mutant; type: biochemical; conditions: CB1R H270L; 10 µM agonist
[21] = biological target: T4, CB1R I267ECL2L; assay: [35S]GTPγS assay, CB1R I267L mutant; type: biochemical; conditions: CB1R I267L; 10 µM agonist
[22] = biological target: T5, CB1R D266ECL2E; assay: [35S]GTPγS assay, CB1R D266E mutant; type: biochemical; conditions: CB1R D266E; 10 µM agonist
[23] = tested on: CB1R QuadrupleTM1,7; assay: [35S]GTPγS assay, CB1R quadruple mutant; type: biochemical, human; conditions: CB1R Quadruple TM1,7; 10 µM agonist

T1 sequence (P34972 whole entry): as the sequence (P34972 whole entry) above

Compound: CCCCCCC(C)(C)c1cc(OC)c([C@@H]2C=C(CO)[C@@H]3C[C@H]2C3(C)C)c(OC)c1 [HU308]
- ET (engagement time) [1]: 143 s and 143 ± 47.9 s
- Emax ([2]; maximum effect at 10 µM compared to WT (Suppl. Table 6)): 105 ± 3%
- Emax ([2]; maximum effect compared to CP55,940): 91 ± 8%
- [35S]GTPγS binding, percentage of WT ([2]; WT, log [ligand] (M) -10, individual replicates): 12.69 percentage of WT and 0.12 percentage of WT and -18.99 percentage of WT and 12.94 percentage of WT and 1.90 percentage of WT and -10.30 percentage of WT and -18.00 percentage of WT and 0.09 percentage of WT and 9.81 percentage of WT and 3.21 percentage of WT
- [35S]GTPγS binding, percentage of CP55,940 ([2]; log [agonist] (M) -5, individual replicates): 84.84% and 81.20% and 107.18%
- [35S]GTPγS binding, percentage of CP55,940 ([2]; log [agonist] (M) -6, individual replicates): 42.88% and 70.07% and 64.55%
- [35S]GTPγS binding, percentage of CP55,940 ([2]; log [agonist] (M) -7, individual replicates): 59.80% and 30.89% and 31.02%
- [35S]GTPγS binding, percentage of CP55,940 ([2]; log [agonist] (M) -8, individual replicates): 26.43% and 5.08% and 10.60%
- [35S]GTPγS binding, percentage of CP55,940 ([2]; log [agonist] (M) -9, individual replicates): -10.38% and -5.63% and -15.53%
- [35S]GTPγS binding, percentage of CP55,940 ([2]; log [agonist] (M) -10, individual replicates): 1.23% and -8.38% and 14.06%
- Emax [3]: 122 ± 12%
- [35S]GTPγS binding ([3]; log [ligand] (M) -5): 144.00 percentage of WT and 101.90 percentage of WT and 119.46 percentage of WT
- [35S]GTPγS binding ([3]; log [ligand] (M) -6): 62.70 percentage of WT and 56.80 percentage of WT and 71.03 percentage of WT
- [35S]GTPγS binding ([3]; log [ligand] (M) -7): 34.90 percentage of WT and 47.80 percentage of WT and 66.79 percentage of WT
- [35S]GTPγS binding ([3]; log [ligand] (M) -8): 0.30 percentage of WT and -7.00 percentage of WT and 4.82 percentage of WT
- [35S]GTPγS binding ([3]; log [ligand] (M) -9): -41.10 percentage of WT and -11.80 percentage of WT and -14.01 percentage of WT
- [35S]GTPγS binding ([3]; log [ligand] (M) -10): -13.40 percentage of WT and -17.60 percentage of WT and 8.27 percentage of WT
- Emax [4]: 27 ± 10%
- [35S]GTPγS binding ([4]; log [ligand] (M) -5): 7.61 percentage of WT and 53.50 percentage of WT and 22.50 percentage of WT and 24.96 percentage of WT
- [35S]GTPγS binding ([4]; log [ligand] (M) -6): -2.63 percentage of WT and 15.83 percentage of WT and -2.10 percentage of WT and 11.35 percentage of WT
- [35S]GTPγS binding ([4]; log [ligand] (M) -7): -21.19 percentage of WT and 26.20 percentage of WT and -0.60 percentage of WT and -1.65 percentage of WT
- [35S]GTPγS binding ([4]; log [ligand] (M) -8): -20.10 percentage of WT and 21.60 percentage of WT and -13.80 percentage of WT and -17.12 percentage of WT
- [35S]GTPγS binding ([4]; log [ligand] (M) -9): -21.53 percentage of WT and -16.40 percentage of WT and -20.30 percentage of WT and -26.64 percentage of WT
- [35S]GTPγS binding ([4]; log [ligand] (M) -10): -16.86 percentage of WT and 2.60 percentage of WT and -15.20 percentage of WT and -22.40 percentage of WT
- Emax [5]: 65 ± 18%
- loss in potency compared to WT ([5]; S285A mutant vs WT, [35S]GTPγS): 15 fold
- Emax (%) ([5]; S285A mutant, at 10 µM compared to WT): unaffected
- Emax [6]: 5 ± 11%
- [35S]GTPγS binding ([6]; F1173.36A, log [ligand] (M) -5, individual replicates): -12.18 percentage of WT and 25.21 percentage of WT and 1.54 percentage of WT
- Emax [7]: 67 ± 16%
- Emax [8]: 26 ± 7%
- drop in potency compared to WT ([8]; V261L mutant vs WT, [35S]GTPγS): more than 120 fold
- [35S]GTPγS binding ([8]; log [ligand] (M) -5): 38.70 percentage of WT and 22.83 percentage of WT and 16.52 percentage of WT
- [35S]GTPγS binding ([8]; log [ligand] (M) -6): 9.87 percentage of WT and 8.25 percentage of WT and -4.25 percentage of WT
- [35S]GTPγS binding ([8]; log [ligand] (M) -7): 4.21 percentage of WT and 12.98 percentage of WT and 17.88 percentage of WT
- [35S]GTPγS binding ([8]; log [ligand] (M) -8): 19.13 percentage of WT and 1.74 percentage of WT and -11.50 percentage of WT
- [35S]GTPγS binding ([8]; log [ligand] (M) -9): 9.08 percentage of WT and 5.95 percentage of WT and 6.43 percentage of WT
- [35S]GTPγS binding ([8]; log [ligand] (M) -10): 7.31 percentage of WT and 13.50 percentage of WT and 10.09 percentage of WT
- Emax [9]: 146 ± 8%
- Emax [10]: 10 ± 7%
- Emax [11]: 32 ± 3%
- Emax [12]: 1 ± 9%
- activation of CB2R-Quadruple^TM1,7 [12]: completely lost their ability to activate
- Displacement (%) of [3H]CP55,940 [13]: 6 ± 7%
- percentage specific [3H]CP55,940 binding [13]: 78.66 percentage and 99.84 percentage and 102.02 percentage
- percentage specific [3H]CP55,940 binding [14]: 49.24 percentage and 48.12 percentage and 78.61 percentage
- Displacement (%) of [3H]CP55,940 [15]: 46 ± 3%
- percentage specific [3H]CP55,940 binding [15]: 48.81 percentage and 55.24 percentage and 57.51 percentage
- Displacement (%) of [3H]CP55,940 [16]: -7 ± 19%
- percentage specific [3H]CP55,940 binding [16]: 143.22 percentage and 82.61 percentage and 94.20 percentage
- Displacement (%) of [3H]CP55,940 [17]: 34 ± 5%
- percentage specific [3H]CP55,940 binding [17]: 73.61 percentage and 56.25 percentage and 67.45 percentage
- Displacement (%) of [3H]CP55,940 [18]: -13 ± 22%
- percentage specific [3H]CP55,940 binding [18]: 134.56 percentage and 68.97 percentage and 134.64 percentage
- Agonist-mediated activation [19]: 0.8 ± 0.0 fold over its basal
- Agonist-mediated activation [20]: 1.2 ± 0.1 fold over its basal
- Agonist-mediated activation [21]: 0.8 ± 0.0 fold over its basal
- Agonist-mediated activation [22]: 0.8 ± 0.1 fold over its basal
- Agonist-mediated activation [23]: 0.9 ± 0.0 fold over its basal
